This assay addresses Acetylcholinesterase (AChE) (Electrophorus electricus, UniProt O42275). The assay is described as follows: Ellman's assay with purchased electric eel AChE, Dixon plot. Type of assay: biochemical.

Sequence of Acetylcholinesterase (AChE) (O42275 24-633): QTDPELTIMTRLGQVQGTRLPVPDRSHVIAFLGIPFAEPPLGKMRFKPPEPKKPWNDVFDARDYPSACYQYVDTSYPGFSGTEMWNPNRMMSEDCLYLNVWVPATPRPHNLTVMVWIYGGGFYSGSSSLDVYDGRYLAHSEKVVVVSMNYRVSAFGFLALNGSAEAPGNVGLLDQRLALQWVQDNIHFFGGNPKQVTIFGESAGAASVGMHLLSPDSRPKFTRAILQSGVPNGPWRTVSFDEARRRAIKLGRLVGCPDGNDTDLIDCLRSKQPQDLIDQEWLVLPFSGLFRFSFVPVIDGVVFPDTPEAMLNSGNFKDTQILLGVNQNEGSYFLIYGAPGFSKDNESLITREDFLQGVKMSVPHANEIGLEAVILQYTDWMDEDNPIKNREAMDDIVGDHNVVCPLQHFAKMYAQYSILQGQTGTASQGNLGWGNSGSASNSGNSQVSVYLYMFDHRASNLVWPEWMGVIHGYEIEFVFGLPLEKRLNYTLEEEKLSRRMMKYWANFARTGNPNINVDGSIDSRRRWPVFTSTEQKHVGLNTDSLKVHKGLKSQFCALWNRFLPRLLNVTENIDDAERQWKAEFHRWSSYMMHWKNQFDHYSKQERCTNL

By Ki is commonly meant the dissociation constant of the complex between target and ligand, obtained from inhibition or displacement. Lower therefore signals higher affinity. As to `OC(CCN1CCCCC1)(c1ccccc1)C1CC2C=CC1C2` (stereo not drawn) [Biperiden, alpha-bicyclo[2.2.1]hept-5-en-2-yl-alpha-phenyl-1-piperidinepropanol], the Ki turned out to be 1110 ± 200 µM.

The record behind these values is PMC5530453, “Anti-Parkinson Drug Biperiden Inhibits Enzyme Acetylcholinesterase” (BioMed Research International, 2017).
